Like-named read-outs stand apart in the source and are kept apart here.

A word on the IC50: it is the concentration that gives 50% inhibition.

Data set [1] has as its system CH1/PA-1 cells. The experiment in a line: DCFH-DA assay (ROS levels). The following applies: CH1/PA-1, DCFH-DA, up to 2 h. Format: cell-based, human.
Data set [2] relates to CH1/PA-1 ovarian teratocarcinoma cells. The following applies: CH1/PA-1, MTT, 96 h exposure; cited from earlier work.
Data set [3] has as its system SW480 cells. The experiment in a line: Apoptosis assay (annexin V-FITC/PI, flow cytometry). The following applies: SW480, 24 h; for early apoptotic cells / late apoptotic cells / necrotic cells / viable cells: mean ± SD; for Apoptosis / necrosis induction (in words): concentrations covering the IC50 range.
Experimental: Cell death induction was quantitatively analyzed via flow cytometry using double staining with FITC-conjugated annexin V (eBioscience, San Diego, CA, USA) and propidium iodide (PI, 1.0 mg/mL, Sigma-Aldrich). SW480 cells were seeded into 24-well plates (7 × 10^4 cells/well) in 600 µL MEM per well and allowed to settle for 24 h. Afterward, cells were exposed to two or three different concentrations (0.1–100 µM) of the compounds (based on their cytotoxic activity) for 24 h. After treatment, the medium was collected, and cells were washed once with 37 °C warm PBS and harvested. Following trypsinization, the cell suspension was added to the pre-collected medium and cells were centrifuged (300 g, 3 min). The supernatant was removed, and the cell pellet was resuspended with 1.5 µL FITC-conjugated annexin V in 150 µL binding buffer (10 mM HEPES/NaOH pH 7.4, 140 mM NaCl and 2.5 mM CaCl2) and incubated at 37 °C for 15 min. An amount of 1 µL of propidium iodide (PI, Thermo Fisher) was added shortly before flow-cytometric analysis using a Guava easyCyte 8HT instrument (Merck Millipore, Burlington, MA, USA) with InCyte software. Results were quantified by using the FlowJo software (TreeStar). At least three independent experiments were conducted.
A short description of data set [4]: HPLC-MS stability measurements in PBS. The following applies: PBS pH 7.4, 20 °C, 40 µM. As to the method: 4 µL of stock solution was mixed with 990 µL of PBS buffer (pH 7.4) and 6 µL DMSO to obtain a final concentration of 40 µM. After injection, the chromatogram at 225 nm and the corresponding mass spectra (positive mode) were recorded hourly (4 h) and after 24 h at 20 °C. Peak areas were determined by integrating complex signals of the respective chromatogram. The measurements were performed with an HPLC system (Agilent Technologies, […]) equipped with a C18 column (Waters, Atlantis T3 […], 1.0 × 150 mm^2) coupled to an MS (Bruker, amaZon SL, ESI, positive mode) with a flow rate of 0.2 mL/min at 20 °C and a gradient (5–95%) with Milli-Q water/ACN.

In data set [5] the target is T1, NQO1 (SW480 cells) (Homo sapiens, UniProt P15559).
T1 construct: impact on NQO1 activity in SW480 (left panel) and CH1/PA-1 (right panel) cell extracts after treatment; endogenous in cells; host or cells: SW480 colon carcinoma cells (ATCC)
T1 sequence (P15559 whole entry): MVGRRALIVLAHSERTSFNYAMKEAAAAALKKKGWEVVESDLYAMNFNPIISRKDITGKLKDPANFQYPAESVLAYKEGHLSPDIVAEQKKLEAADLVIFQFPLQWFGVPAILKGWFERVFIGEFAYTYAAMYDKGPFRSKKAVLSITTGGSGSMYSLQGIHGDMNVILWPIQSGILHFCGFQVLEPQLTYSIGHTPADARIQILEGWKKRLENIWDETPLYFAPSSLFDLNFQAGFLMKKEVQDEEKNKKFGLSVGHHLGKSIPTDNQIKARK
The experiment in a line: NQO1 activity assay in cell extracts after treatment. The following applies: SW480, 24 h treatment. The class given is cell-based. As to the method:
To determine NQO1 activity, SW480 and CH1/PA-1 cells were seeded into 6-well plates in densities of 2 × 10^5 cells/well in 2 mL supplemented MEM. […] The test substances were dissolved in DMSO/medium. To exclude that assay validity was compromised by the use of DMSO, cells treated with DMSO alone (at concentrations corresponding to those in substance solutions) were measured in parallel. After 24 h drug exposure, the medium was aspirated, and the cells were gently washed twice with PBS. The further steps were performed following the manual instructions of the NQO1 activity assay kit (ab184867, abcam, Cambridge, UK). Protease inhibitor phenylmethylsulfonyl fluoride (PMSF, Merck, Darmstadt, Germany) and phosphatase inhibitor PhosSTOP^TM (Roche, Basel, Switzerland) were applied. For determining the protein concentration, the Micro BCA^TM protein assay (prod # 23235, Thermo Scientific) kit was used. For NQO1 activity determination, 100 µg/mL of total protein was loaded. The development of yellow color was monitored for 5 min in 20-sec intervals with a microplate reader (BioTek ELx808) at 450 nm. The measured data were evaluated according to the instructions of the NQO1 activity assay kit: “NQO1 activity was calculated by subtracting the OD value with Inhibitor from the one without Inhibitor. The activity is expressed as the change in absorbance per minute per amount of sample loaded into the well” [30]. Data are expressed as rates of increase of mean absorbance ± SDs from three independent experiments.

For data set [6], the system named is pUC19 plasmid. Also on record: method as in PMID 34115482. The following applies: cited from earlier work.
For data set [7], the system named is A549 non-small cell lung cancer cells. The following applies: A549, MTT, 96 h exposure; cited from earlier work.
Data set [8] concerns SW480 cells. The experiment in a line: Cellular ruthenium accumulation (ICP-MS). The following applies: SW480, 2 h incubation, 37 °C. The class given is cell-based, human. As for the experimental part: SW480 cells were seeded at densities of 1.8 × 10^5 cells/well in 12-well plates (CytoOne, tissue culture treated) in 1 mL of supplemented MEM per well. (As CH1/PA-1 cells tend to detach during the required washing steps, cellular accumulation studies were performed only in SW480 cells). After 24 h, compounds dissolved in DMSO and diluted in MEM were added to the cells to final concentrations of 2 µM and 5 µM, and cells were incubated at 37 °C for 2 h. During incubation, the cell number was determined from three control wells of a plate seeded in parallel to the treatment plates. After the 2 h incubation, the medium was removed and all wells were washed with 3 × 1 mL PBS, and cells were lysed by adding 400 µL HNO3 per well for 1 h at room temperature. An amount of 300 µL of each lysate was added to 7.7 mL MilliQ water to get a total volume of 8 mL, and determination of the ruthenium content was carried out by ICP-MS. The measured amount of accumulated metal was normalized to the cell number and results were given in fg [Ru]/cell from at least three independent experiments. An Agilent 7800 ICP-MS instrument (Agilent Technologies, Tokyo, Japan) equipped with an Agilent SPS 4 autosampler (Agilent Technologies, Tokyo, Japan) was used to determine the ruthenium content. The ICP-MS parameters were tuned on a daily base to achieve high sensitivity. The ICP-MS was equipped with a MicroMist nebulizer with a sample uptake rate of ∼0.2 mL/min and standard nickel cones. The Agilent MassHunter software package (Workstation Software, Version C.01.04, 2018) was used for data evaluation. The instrumental parameters can be found in the supplementary information (Table S9).

Data set [9] relates to SW480 colon carcinoma cells. The following applies: SW480, MTT, 96 h exposure; cited from earlier work.
Data set [10] relates to pUC19 plasmid. Nature of the data set: DNA interaction assay (dsDNA plasmid, agarose gel electrophoresis). The following applies: 50 µM, up to 6 h. Format: biochemical. As to the method:
The incubation was performed at 37 °C for different time intervals (15 min to 6 h) with continuous shaking. Additionally, 4 µL aliquots of a 6× DNA loading dye (Thermo Fisher) were added to the 20 µL reaction solution, and the DNA samples were separated in a 1% agarose gel in 1 × Tris-Borate-EDTA (TBE) buffer. Electrophoresis was initiated at 60 V for 5 min and continued at 120 V for 90 min in 1 × TBE buffer. For visualization of the DNA modification degree, the agarose gel was stained with ethidium bromide (EtBr) in 1 × TBE (0.75 µg/mL) for 20 min.

Where [11] appears, read: Homo sapiens, read-out: viable cells.

In the case of `CC1=C([O-])C([O-])(n2cccn2)c2ccccc2C1=O.Cc1ccc(C(C)C)cc1.[Ru+2]` (racemic) [Compound 1], the “ROS level, T/C (treated vs negative control)” value in data set [1] is on record as “≈ 0.5”. The IC50 in data set [2] was above 50 µM; in [7], 1.2 ± 0.2 µM; in [9] it was 0.094 ± 0.031 µM. In addition, the early apoptotic cells in [3] (0.1 µM) amounted to 3.7 ± 3.1%; in [3] (1 µM), 1.3 ± 0.5%; in data set [3] (10 µM), 16 ± 1%. For the same compound, the late apoptotic cells in [3] (0.1 µM) was determined as 3.6 ± 2.6%; in data set [3] (1 µM) it was 4.9 ± 2.8%; in data set [3] (10 µM), 64 ± 6%. Besides, the necrotic cells turned out to be 0.77 ± 0.33% in [3] (0.1 µM), 1.2 ± 0.8% in data set [3] (1 µM) and 6.7 ± 3.1% in data set [3] (10 µM). Also, the viable cells in data set [3] (0.1 µM) was 92 ± 6%; in [3] (1 µM) it was 93 ± 4%; in data set [3] (10 µM), 13 ± 3%. Further, the “Apoptosis / necrosis induction (in words)” value in [3] is recorded as “induced apoptosis to a high extent”. Moreover, in data set [4] (after 24 h), the “Percentage amount of initial complex remaining” value is “more than 70%”. Also, the “Effect on NQO1 activity (in words)” value is listed as “negligible effects” in data set [5] (0.1 µM and 1 µM, compared to untreated control); “lowered NQO1 activity tremendously” in data set [5] (10 µM). Also, in data set [6], the “Influence on pUC19 (in words)” value is “only a minor influence on pUC19”. Also, the figures for the “Ru [102]/cell (cellular accumulation)” value in data set [8] (2 µM) and in data set [8] (5 µM) were 97 ± 8 fg and 299 ± 54 fg, respectively.
In data set [3] (0.1 µM), `CC1=C([O-])C([O-])(n2cccn2)c2ccccc2C1=O.Cc1c(C)c(C)c(C)c(C)c1C.[Ru+2]` (stereo not drawn) [Compound 6] came in with an early apoptotic cells of 1.0 ± 0.7%, a late apoptotic cells of 4.7 ± 2.8%, a necrotic cells of 17 ± 27% and a viable cells of 77 ± 29%. In data set [3] (1 µM), this compound showed an early apoptotic cells of 1.1 ± 07%, a late apoptotic cells of 2.0 ± 0.7%, a necrotic cells of 1.0 ± 1.3% and a viable cells of 96 ± 2%. In [3] (10 µM), this compound displayed an early apoptotic cells of 1.1 ± 0.3%, a late apoptotic cells of 3.7 ± 0.1%, a necrotic cells of 0.94 ± 0.52% and a viable cells of 94 ± 0%. Also, the “Apoptosis / necrosis induction (in words)” value in [3] is “neither apoptotic nor necrotic cells exceeded the percentages in untreated controls”. Further, the “Percentage amount of initial complex remaining” value in data set [4] (after 4 h) is “less than 70%”. Further, the “Influence on pUC19 (in words)” value in data set [10] is “only a minor influence on pUC19”. Besides, the “Ru [102]/cell (cellular accumulation)” value in data set [8] (2 µM) amounted to 100 ± 15 fg. The “Ru [102]/cell (cellular accumulation)” value in [8] (5 µM) is on record as 206 ± 32 fg.
As to `CC1=C(O)C(=O)c2ccccc2C1=O` [L, 2-Hydroxy-3-methyl-1,4-naphthoquinone], the IC50 in data set [2] was 129 ± 29 µM; in [7] it was 210 ± 32 µM; in data set [9], 116 ± 37 µM. The viability at 10 µM in data set [3] (setting [11]) is 97 ± 1%. Moreover, the viability at 100 µM in data set [3] (setting [11]) was 96%. In addition, the early apoptotic cells in [3] (10 µM) is on record as 1.0 ± 0.5%; in [3] (100 µM), 1.0 ± 0.2%. Moreover, the late apoptotic cells was 1.6 ± 0.2% in data set [3] (10 µM) and 1.9 ± 0.2% in [3] (100 µM). Further, the necrotic cells is 0.61 ± 0.44% in data set [3] (10 µM) and 0.86 ± 0.33% in [3] (100 µM). Besides, in data set [3], the “Apoptosis / necrosis induction (in words)” value is reported as “did not induce any of these processes”. In data set [5] (10 µM), the “Effect on NQO1 activity (in words)” value is given as “moderately inhibited”. Moreover, the “Influence on pUC19 (in words)” value in [6] is listed as “only a minor influence on pUC19”.

The values above are taken from publication PMC9699003, “Arene Variation of Highly Cytotoxic Tridentate Naphthoquinone-Based Ruthenium(II) Complexes and In-Depth In Vitro Studies” (Pharmaceutics, 2022).
